In patent publication US12077503B2, “Substituted cyclic amides and their use as herbicides” (FMC CORPORATION, priority 2015, dated 2024):
Like-named read-outs stand apart in the source and are kept apart here.

Columns and labels:
Experiment in all cases: Test A postemergence
Type in all cases: in vivo
[1] = system: barnyardgrass (Echinochloa crus-galli); settings: Echinochloa crus-galli, post-emergence, 240 h; for pest or weed control at 125 g/ha: 125 g ai/ha; for pest or weed control at 500 g/ha: 500 g ai/ha
In short: (§1)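 Greenhouse, ~10 d after spray; visual injury vs untreated controls, 0 = no effect, 100 = complete control. Preemergence: directed soil spray over planted seeds. Postemergence: plants 2–10 cm, 1–2 leaf stage. Loam/sand blend. Compound in non-phytotoxic solvent with surfactant.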

[2] = system: blackgrass (Alopecurus myosuroides); settings: Alopecurus myosuroides, post-emergence, 240 h; for pest or weed control at 125 g/ha: 125 g ai/ha; for pest or weed control at 500 g/ha: 500 g ai/ha
In short: as §1

[3] = system: corn (Zea mays); settings: Zea mays, post-emergence, 240 h; for Corn plant response rating (crop injury, 0 = no effect, 100 = complete kill) at 125 g/ha / plant injury at 125 g/ha: 125 g ai/ha; for Corn plant response rating (crop injury, 0 = no effect, 100 = complete kill) at 125 g/ha: Postemergence, visual injury after approximately 10 d, 0 to 100 scale where 0 is no effect and 100 is complete control; for Corn plant response rating (crop injury, 0 = no effect, 100 = complete kill) at 500 g/ha: visual injury, 0 to 100 scale (0 no effect, 100 complete control); for Corn plant response rating (crop injury, 0 = no effect, 100 = complete kill) at 500 g/ha / plant injury at 125 g/ha: approx. 10 d; for plant injury at 125 g/ha: visual injury on 0 to 100 scale (0 no effect, 100 complete control)
In short: as §1

[4] = system: giant foxtail (Setaria faberii); settings: Setaria faberi, post-emergence, 240 h, postemergence; for pest or weed control at 125 g/ha: 125 g ai/ha, visual injury on 0 to 100 scale (0 no effect, 100 complete control); for pest or weed control at 500 g/ha: 500 g ai/ha
In short: as §1

[5] = system: pigweed (Amaranthus retroflexus); settings: Amaranthus retroflexus, post-emergence, 240 h, postemergence; for pest or weed control at 125 g/ha: 125 g ai/ha, visual injury on 0 to 100 scale (0 no effect, 100 complete control); for pest or weed control at 500 g/ha: 500 g ai/ha
In short: as §1

[6] = Postemergence, visual injury after approximately 10 d, 0 to 100 scale where 0 is no effect and 100 is complete control, read-out: Plant response rating, Barnyardgrass
[7] = postemergence, visual injury, 0 to 100 scale (0 no effect, 100 complete control), approx. 10 d, read-out: Plant response rating, Barnyardgrass
[8] = Postemergence, visual injury after approximately 10 d, 0 to 100 scale where 0 is no effect and 100 is complete control, read-out: Plant response rating, Blackgrass
[9] = postemergence, visual injury, 0 to 100 scale (0 no effect, 100 complete control), approx. 10 d, read-out: Plant response rating, Blackgrass
[10] = approx. 10 d, read-out: Foxtail, Giant plant response rating
[11] = visual injury, 0 to 100 scale (0 no effect, 100 complete control), approx. 10 d, read-out: Plant response rating, Foxtail, Giant
[12] = approx. 10 d, read-out: Pigweed plant response rating
[13] = visual injury, 0 to 100 scale (0 no effect, 100 complete control), approx. 10 d, read-out: Plant response rating, Pigweed
[14] = postemergence, visual injury on 0 to 100 scale (0 no effect, 100 complete control), approx. 10 d, read-out: Barnyardgrass plant response rating
[15] = postemergence, visual injury on 0 to 100 scale (0 no effect, 100 complete control), approx. 10 d, read-out: Blackgrass plant response rating
[16] = postemergence, read-out: Corn plant response rating

| SMILES | pest or weed control at 125 g/ha [1, 6] [%] | pest or weed control at 500 g/ha [1, 7] [%] | pest or weed control at 125 g/ha [2, 8] [%] | pest or weed control at 500 g/ha [2, 9] [%] | Corn plant response rating (crop injury, 0 = no effect, 100 = complete kill) at 125 g/ha [3] [%] | Corn plant response rating (crop injury, 0 = no effect, 100 = complete kill) at 500 g/ha ([3]; 500 g ai/ha, postemergence) [%] | pest or weed control at 125 g/ha [4, 10] [%] | pest or weed control at 500 g/ha [4, 11] [%] | pest or weed control at 125 g/ha [5, 12] [%] | pest or weed control at 500 g/ha [5, 13] [%] | pest or weed control at 125 g/ha [1, 14] [%] | pest or weed control at 125 g/ha [2, 15] [%] | plant injury at 125 g/ha [3, 16] [%] | pest or weed control at 500 g/ha ([1]; postemergence, 0 to 100 scale, 0 is no effect, 100 is complete control, read-out: Barnyardgrass plant response rating) [%] | pest or weed control at 500 g/ha ([2]; postemergence, 0 to 100 scale, 0 is no effect, 100 is complete control, read-out: Blackgrass plant response rating) [%] | plant injury at 500 g/ha ([3]; 500 g ai/ha, postemergence, 0 to 100 scale, 0 is no effect, 100 is complete control, read-out: Corn plant response rating) [%] | pest or weed control at 500 g/ha ([4]; 0 to 100 scale, 0 is no effect, 100 is complete control, read-out: Foxtail, Giant plant response rating) [%] | pest or weed control at 500 g/ha ([5]; 0 to 100 scale, 0 is no effect, 100 is complete control, read-out: Pigweed plant response rating) [%] |
| --- | --- | --- | --- | --- | --- | --- | --- | --- | --- | --- | --- | --- | --- | --- | --- | --- | --- | --- |
| CC(C)COc1cccc([C@H]2CN(C)C(=O)[C@@H]2C(=O)Nc2ccccc2F)c1 [Compound 1028] | 80 | 90 | 30 | 40 | 0 | 30 | 80 | 80 | 0 | 0 | – | – | – | – | – | – | – | – |
| CC(C)COc1cccc([C@H]2CN(C)C(=O)[C@@H]2C(=O)Nc2cccc(F)c2F)c1 [Compound 1029] | 80 | 90 | 30 | 40 | 50 | 70 | 80 | 90 | 0 | 0 | – | – | – | – | – | – | – | – |
| Cc1ccc([C@H]2CNC(=O)[C@@H]2C(=O)Nc2ccccc2S(C)(=O)=O)cc1C [Compound 1037] | 70 | 90 | 0 | 20 | 0 | 30 | 0 | 30 | 0 | 0 | – | – | – | – | – | – | – | – |
| Cc1ccc([C@H]2CN(C)C(=O)[C@@H]2C(=O)Nc2cccc(F)c2F)cc1C [Compound 1039] | 90 | 90 | 30 | 40 | 70 | 70 | 90 | 90 | 0 | – | – | – | – | – | – | – | – | – |
| Cc1cc([C@H]2CNC(=O)[C@@H]2C(=O)Nc2ccc(F)cc2F)ccc1C(F)(F)F [Compound 1043] | – | 80 | – | 30 | – | 60 | 70 | 80 | 0 | – | 50 | 20 | 20 | – | – | – | – | – |
| CN1C[C@H](c2cscn2)[C@@H](C(=O)Nc2cccc(F)c2F)C1=O [Compound 1113] | – | – | – | – | – | – | 0 | – | 0 | – | 0 | 0 | 0 | 0 | 0 | 0 | 0 | 0 |
